19 compounds from patent publication US9802918B2, “Pyridineamine compounds useful as Pim kinase inhibitors” (Incyte Corporation, priority 2015, dated 2017) can be followed below.

Common to all, as to assay type: biochemical
The target in one experiment is Pim-3 (Homo sapiens (Human), UniProt Q86V86). Nature of the experiment: Pim-3 kinase assay. To be noted: 1 mM ATP; read-out: Pim3 IC50. On the procedure:
Pim-1 and Pim-3 kinase assays-20 μL reactions were run in white 384 well polystyrene plates dotted with 0.8 μL compound/DMSO in the assay buffer (50 mM Tris, pH 7.5, 0.01% Tween-20, 5 mM mgCl2, 0.01% BSA, 5 mM DTT), containing […] Biotin-labeled BAD peptide substrate (AnaSpec 62269), 1 mM ATP, and 2.5 pM (Pim-1, Invitrogen PV3503) or 1.25 pM (Pim-3, Millipore 14-738) enzyme for 1 h at 25° C. Reactions were stopped by addition of 10 μL STOP Buffer (150 mM Tris, pH=7.5, 150 mM NaCl, 75 mM EDTA, 0.01% Tween-20, 0.3% BSA,) supplemented with Phospho-Bad (Ser112) Antibody (Cell Signaling 9291) diluted 666-fold, and Streptavidin donor beads (PerkinElmer 6760002) along with Protein-A acceptor beads (PerkinElmer 6760137) at 15 μg/mL each. Supplementation of the STOP buffer with beads and stopping the reactions were done under reduced light. Prior to the stopping reactions STOP buffer with beads was preincubated for 1 h in the dark at room temperature. After stopping the reactions, plates were incubated for 1 h in the dark at room temperature before reading on a PHERAstar FS plate reader (BMG Labtech) under reduced light.

The target of another experiment is Pim-1 (Homo sapiens (Human), UniProt P11309). Nature of the experiment: Pim-1 kinase assay. As to conditions: 1 mM ATP; read-out: Pim1 IC50. As for the experimental part: Supplementation of the STOP buffer with beads and stopping the reactions were done under reduced light. Prior to the stopping reactions STOP buffer with beads was preincubated for 1 h in the dark at room temperature. After stopping the reactions, plates were incubated for 1 h in the dark at room temperature before reading on a PHERAstar FS plate reader (BMG Labtech) under reduced light.

The target in a further experiment is Pim-2 (Homo sapiens (Human), UniProt Q9P1W9). Nature of the experiment: Pim-2 kinase assay. As to conditions: 1 mM ATP; read-out: Pim2 IC50. As for the experimental part: Pim-2 kinase assay—20 μL reactions were run in white 384 well polystyrene plates dotted with 0.8 μL compound/DMSO in the assay buffer (50 mM Tris, pH 7.5, 0.01% Tween-20, 5 mM mgCl2, 0.01% BSA, 5 mM DTT), containing […] Fluorescein-labeled CREBtide peptide substrate (Invitrogen PV3508), 1 mM ATP, and 1 nM enzyme (Invitrogen PV3649) for 2 h at 25° C. Reactions were stopped by addition of 10 μL TR-FRET Dilution Buffer (Invitrogen PV3574) with 30 mM EDTA and 1.5 nM LanthaScreen Tb-CREB pSer133 antibody (Invitrogen PV3566). After 30 min. incubation at room temperature, plates were read on a PHERAstar FS plate reader (BMG Labtech).

Structures are written as SMILES.

Sequence of Pim-2 (Q9P1W9 whole entry): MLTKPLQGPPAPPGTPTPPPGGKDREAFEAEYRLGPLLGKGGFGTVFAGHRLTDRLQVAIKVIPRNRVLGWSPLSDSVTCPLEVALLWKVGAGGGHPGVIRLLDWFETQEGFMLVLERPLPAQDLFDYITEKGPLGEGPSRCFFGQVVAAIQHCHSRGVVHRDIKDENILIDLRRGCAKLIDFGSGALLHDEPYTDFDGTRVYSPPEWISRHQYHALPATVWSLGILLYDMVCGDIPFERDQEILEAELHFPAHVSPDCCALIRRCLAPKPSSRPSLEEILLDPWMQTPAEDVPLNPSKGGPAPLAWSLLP
Sequence of Pim-1 (P11309 whole entry): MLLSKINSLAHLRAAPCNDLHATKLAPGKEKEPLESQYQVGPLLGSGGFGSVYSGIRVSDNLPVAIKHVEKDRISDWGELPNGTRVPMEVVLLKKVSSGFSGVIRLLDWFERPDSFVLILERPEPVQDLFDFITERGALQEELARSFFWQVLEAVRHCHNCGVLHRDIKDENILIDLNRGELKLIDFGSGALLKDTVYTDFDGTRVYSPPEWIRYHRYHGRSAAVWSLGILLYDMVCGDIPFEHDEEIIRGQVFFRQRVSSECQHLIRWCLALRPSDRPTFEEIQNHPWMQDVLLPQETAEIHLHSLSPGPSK

A word on the IC50: it is the point on the concentration scale where inhibition reaches its midpoint. As for `C[C@H]1CN(c2ccncc2NCc2ccc3occ(-c4c(F)cc(CO)cc4F)c3n2)C[C@@H](N)[C@@H]1O` [Example 96, (3R,4R,5S)-3-amino-1-(3-(((3-(2,6-difluoro-4-(hydroxymethyl)phenyl)furo[3,2-b]pyridin-5-yl)methyl)amino)pyridin-4-yl)-5-methylpiperidin-4-ol], the figures for the concentration for half-maximal inhibition (IC50) at Pim-3, on Pim-1 and on Pim-2 were no more than 10 nM, less than 10 nM and 100 to 1000 nM, respectively.

For `CNCc1cc(F)c(-c2nc(CNc3cnccc3N3C[C@H](C)C[C@H](N)C3)ccc2F)c(F)c1` [Example 49, 4-((3S,5R)-3-Amino-5-methylpiperidin-1-yl)-N-((6-(2,6-difluoro-4-((methylamino)methyl)phenyl)-5-fluoropyridin-2-yl)methyl)pyridin-3-amine], the 50% inhibitory concentration (IC50) is no more than 10 nM on Pim-3, less than 10 nM at Pim-1 and 100 to 1000 nM at Pim-2.

For `N[C@H]1C[C@@H](C(F)(F)F)CN(c2ccncc2NCc2ccc(F)c(-c3c(F)cc(C4(O)CCC4)cc3F)n2)C1` [Example 7, 1-(4-{6-[({4-[(3S,5R)-3-Amino-5-(trifluoromethyl)piperidin-1-yl]pyridin-3-yl}amino)methyl]-3-fluoropyridin-2-yl}-3,5-difluorophenyl)cyclobutanol], the results for the half-maximal inhibitory concentration (IC50) on Pim-3, at Pim-1 and at Pim-2 were no more than 10 nM, less than 10 nM and no more than 100 nM, respectively.

On to `C[C@@H]1C[C@H](N)CN(c2ccncc2NCc2ccc(F)c(C3CCCCC3)n2)C1` [Example 58, 4-[(3S,5R)-3-Amino-5-methylpiperidin-1-yl]-N-[(6-cyclohexyl-5-fluoropyridin-2-yl)methyl]pyridin-3-amine], for which the IC50 on Pim-3 is 10 to 50 nM; at Pim-1, less than 10 nM; at Pim-2, 100 to 1000 nM.

As for `C[C@H]1CN(c2ccncc2NCc2ccc(F)c(-c3c(F)cc(CN4CCOCC4)cc3F)n2)C[C@@H](N)[C@@H]1O` [Example 39, (3R,4R,5S)-3-Amino-1-{3-[({6-[2,6-difluoro-4-(morpholin-4-ylmethyl)phenyl]-5-fluoropyridin-2-yl}methyl)amino]pyridin-4-yl}-5-methylpiperidin-4-ol], the IC50 was no more than 10 nM at Pim-3, less than 10 nM at Pim-1 and no more than 100 nM on Pim-2.

`C[C@@H]1C[C@H](N)CN(c2ccncc2NCc2ccc(F)c(-c3c(F)cc(CN4CCOCC4)cc3F)n2)C1` [Example 48, 4-[(3S,5R)-3-Amino-5-methylpiperidin-1-yl]-N-({6-[2,6-difluoro-4-(morpholin-4-ylmethyl)phenyl]-5-fluoropyridin-2-yl}methyl)pyridin-3-amine]: the IC50 was no more than 10 nM on Pim-3, less than 10 nM on Pim-1 and no more than 100 nM on Pim-2.

Turning to `C[C@@H]1C[C@H](N)CN(c2ccncc2NCc2ccc(F)c(-c3c(F)cc(CO)cc3F)n2)C1` [Example 36, (4-{6-[({4-[(3S,5R)-3-Amino-5-methylpiperidin-1-yl]pyridin-3-yl}amino)methyl]-3-fluoropyridin-2-yl}-3,5-difluorophenyl)methanol], the 50% inhibitory concentration (IC50) on Pim-3 is no more than 10 nM; at Pim-1, less than 10 nM; at Pim-2 it was no more than 100 nM.

Consider `C[C@@H]1C[C@H](N)CN(c2ccncc2NCc2nc(-c3c(F)cccc3F)sc2N)C1` [Example 69, N-{[5-Amino-2-(2,6-difluorophenyl)-1,3-thiazol-4-yl]methyl}-4-[(3S,5R)-3-amino-5-methylpiperidin-1-yl]pyridin-3-amine], for which the IC50 on Pim-3 is no more than 10 nM; on Pim-1, less than 10 nM; at Pim-2 it was 1000 to 10000 nM.

Consider `C[C@@H]1C[C@H](N)CN(c2ccncc2NCc2ccc(F)c(-c3c(F)cc(C4(O)CCC4)cc3F)n2)C1` [Example 5, 1-(4-(6-((4-((3S,5R)-3-Amino-5-methylpiperidin-1-yl)pyridin-3-ylamino)methyl)-3-fluoropyridin-2-yl)-3,5-difluorophenyl)cyclobutanol], for which the IC50 on Pim-3 is no more than 10 nM; at Pim-1 it was less than 10 nM; on Pim-2 it was no more than 100 nM.

On to `C[C@H]1CN(c2ccncc2NCc2ccc(F)c(-c3c(F)cc(CC(C)(C)O)cc3F)n2)C[C@@H](N)[C@@H]1O` [Example 12, (3R,4R,5S)-3-Amino-1-{3-[({6-[2,6-difluoro-4-(2-hydroxy-2-methylpropyl)phenyl]-5-fluoropyridin-2-yl}methyl)amino]pyridin-4-yl}-5-methylpiperidin-4-ol], for which the 50% inhibitory concentration (IC50) on Pim-3 was no more than 10 nM; at Pim-1, less than 10 nM; at Pim-2 it was no more than 100 nM.

As to `C[C@@H]1C[C@H](N)CN(c2ccncc2NCc2ccc(F)c(-c3c(F)cc(OC4CCOCC4)cc3F)n2)C1` [Example 78, 4-[(3S,5R)-3-Amino-5-methylpiperidin-1-yl]-N-({6-[2,6-difluoro-4-(tetrahydro-2H-pyran-4-yloxy)phenyl]-5-fluoropyridin-2-yl}methyl)pyridin-3-amine], the figures for the concentration for half-maximal inhibition (IC50) on Pim-3, on Pim-1 and at Pim-2 were no more than 10 nM, less than 10 nM and no more than 100 nM, respectively.

Turning to `C[C@H]1CN(c2ccncc2NCc2ccc(F)c(-c3c(F)cccc3C#N)n2)C[C@@H](N)[C@@H]1O` [Example 17, 2-(6-((4-((3R,4R,5S)-3-Amino-4-hydroxy-5-methylpiperidin-1-yl)pyridin-3-ylamino)methyl)-3-fluoropyridin-2-yl)-3-fluorobenzonitrile], the 50% inhibitory concentration (IC50) at Pim-3 was no more than 10 nM; at Pim-1, less than 10 nM; at Pim-2, 100 to 1000 nM.

Turning to `C[C@H]1CN(c2ccncc2NCc2ccc(F)c(-c3c(F)cc(CN4CCC4)cc3F)n2)C[C@@H](N)[C@@H]1O` [Example 41, (3R,4R,5S)-3-Amino-1-(3-(((6-(4-(azetidin-1-ylmethyl)-2,6-difluorophenyl)-5-fluoropyridin-2-yl)methyl)amino)pyridin-4-yl)-5-methylpiperidin-4-ol], the concentration for half-maximal inhibition (IC50) at Pim-3 was no more than 10 nM; on Pim-1, less than 10 nM; on Pim-2, 100 to 1000 nM.

As to `C[C@@H]1C[C@H](N)CN(c2ccncc2NCc2cccc(-c3c(F)cccc3F)n2)C1` [Example 29, 4-[(3S,5R)-3-Amino-5-methylpiperidin-1-yl]-N-{[6-(2,6-difluorophenyl)pyridin-2-yl]methyl}pyridin-3-amine], the IC50 on Pim-3 is no more than 10 nM; on Pim-1 it was less than 10 nM; at Pim-2, 100 to 1000 nM.

Turning to `C[C@@H]1C[C@H](N)C[C@H](c2ccncc2NCc2ccc(F)c(-c3c(F)cc(N4CCOCC4)cc3F)n2)C1` [Example 68, 4-[(1R,3S,5S)-3-Amino-5-methylcyclohexyl]-N-{[6-(2,6-difluoro-4-morpholin-4-ylphenyl)-5-fluoropyridin-2-yl]methyl}pyridin-3-amine], the IC50 on Pim-3 is no more than 10 nM; on Pim-1 it was less than 10 nM; at Pim-2, 100 to 1000 nM.

Take `C[C@H]1CN(c2ccncc2NCc2ccc(F)c(-c3c(F)cc(C4(O)CCOCC4)cc3F)n2)C[C@@H](N)[C@@H]1O` [Example 3, (3R,4R,5S)-3-Amino-1-(3-(((6-(2,6-difluoro-4-(4-hydroxytetrahydro-2H-pyran-4-yl)phenyl)-5-fluoropyridin-2-yl)methyl)amino)pyridin-4-yl)-5-methylpiperidin-4-ol]: the results for the IC50 on Pim-3, on Pim-1 and at Pim-2 were no more than 10 nM, less than 10 nM and no more than 100 nM, respectively.

Regarding `C[C@@H]1C[C@H](N)CN(c2ccncc2NCc2ccc3occ(C4CC4)c3n2)C1` [Example 102, 4-[(3S,5R)-3-Amino-5-methylpiperidin-1-yl]-N-[(3-cyclopropylfuro[3,2-b]pyridin-5-yl)methyl]pyridin-3-amine], the figures for the IC50 at Pim-3, on Pim-1 and at Pim-2 were no more than 10 nM, less than 10 nM and 100 to 1000 nM, respectively.

`N[C@H]1C[C@@H](C(F)(F)F)CN(c2ccncc2NCc2ccc(F)c(-c3c(F)cc(N4CCOCC4)cc3F)n2)C1` (stereo in doubt) [Example 34, 4-((3S, SR)-3-Amino-5-(trifluoromethyl)piperidin-1-yl)-N-((6-(2,6-difluoro-4-morpholinophenyl)-5-fluoropyridin-2-yl)methyl)pyridin-3-amine]: the concentration for half-maximal inhibition (IC50) is no more than 10 nM on Pim-3, less than 10 nM on Pim-1 and no more than 100 nM at Pim-2.

Take `C[C@H]1CN(c2ccncc2NCc2ccc3occ(-c4ccc(CO)cc4F)c3n2)C[C@@H](N)[C@@H]1O` [Example 97, (3R,4R,5S)-3-amino-1-(3-(((3-(2-fluoro-4-(hydroxymethyl)phenyl)furo[3,2-b]pyridin-5-yl)methyl)amino)pyridin-4-yl)-5-methylpiperidin-4-ol]: the IC50 on Pim-3 was no more than 10 nM; on Pim-1 it was 10 to 50 nM; on Pim-2, 100 to 1000 nM.
